Patent publication US9612243B1, “Methods and compositions for targeted two-dimensional western blot analysis for early cancer detection and cancer diagnosis up to ten years in advance of clinical symptoms of malignant disease” (Mor-NuCo Enterprises, Inc., priority 2016, dated 2017)

T1: ENOX2 (Homo sapiens, UniProt Q16206)
T1 sequence (Q16206 1-610): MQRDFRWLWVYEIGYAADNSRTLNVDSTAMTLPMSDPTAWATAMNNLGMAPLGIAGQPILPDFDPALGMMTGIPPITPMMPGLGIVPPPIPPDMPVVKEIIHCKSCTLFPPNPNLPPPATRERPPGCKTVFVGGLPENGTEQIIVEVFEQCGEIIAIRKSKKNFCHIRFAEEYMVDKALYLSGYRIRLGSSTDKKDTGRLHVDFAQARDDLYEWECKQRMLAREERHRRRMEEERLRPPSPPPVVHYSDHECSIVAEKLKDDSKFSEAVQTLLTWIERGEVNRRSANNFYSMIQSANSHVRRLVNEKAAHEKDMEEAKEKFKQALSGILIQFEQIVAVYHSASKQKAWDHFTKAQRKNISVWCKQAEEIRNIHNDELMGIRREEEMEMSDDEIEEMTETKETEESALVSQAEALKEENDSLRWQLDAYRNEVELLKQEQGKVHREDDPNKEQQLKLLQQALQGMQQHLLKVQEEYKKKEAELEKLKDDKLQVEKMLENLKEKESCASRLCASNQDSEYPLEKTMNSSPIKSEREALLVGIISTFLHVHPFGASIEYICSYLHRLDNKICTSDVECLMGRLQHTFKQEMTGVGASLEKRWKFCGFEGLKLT


Columns and labels:
ENOX2 [1] = target: T1, ENOX2; experiment: 2-D gel electrophoresis/western blot, incubation with 15 μM NADH compared to no NADH; settings: 15 μM NADH in the assay compared to no NADH, FIG. 1
Method: In order to maintain an active ENOX2 during western blotting with antibody, following blocking for 10 minutes with 1% milk and two rinses with TBST to remove excess milk, reduced pyridine nucleotides [NAD(P)H] were added at a concentration of 15 μM during incubation with the primary scFv antibody. NADH is preferred at a final concentration in the range of 10 μM. Incubation of the blot with antibody with or without shaking at any temperature between 4° C. and 40° C. for times of 1 to 16 hours depending on the concentration of NADH, the temperature and the antibody titer, preferably with incubation at 4° C. overnight (approximately 16 hours) with shaking.

ENOX2 [2] = target: T1, ENOX2; experiment: ENOX2 activity versus NADH concentration, Lineweaver-Burke plot with and without antibody; assay type: biochemical; settings: FIG. 2
Description: FIG. 2 is a graph that depicts the relationship of ENOX2 activity and concentration of NADH.

[3] = tested on: heavy (ca. 52 kDa) and light (ca. 25 kDa) immunoglobulin chain proteins; experiment: 2-D gel/western blot cross-reactivity with serum proteins; assay type: binding, human; settings: on some blots
Description: Separation in the first dimension was by isoelectric focusing over the pH range of 3 to 10 and separation in the second dimension was by 10 percent SDS-PAGE. Isoelectric points of the ENOX2 transcript variants were in the range of 3.2 to 6.3. The principal reactive proteins other than the ENOX2 forms were a 53 kDa isoelectric point pH 4.1, mostly phosphorylated alpha-fetuin (Labeled “R” in FIG. 8) which served as a convenient loading control and isoelectric point reference and a 79-85 kDa, isoelectric point pH 6.8 serotransferrin which served as a second point of reference for loading and as an isoelectric point reference. The two cross reactive reference proteins are present in a majority of sera and plasma of both cancer and non-cancer subjects.
For western blot analysis, 30 μL of sera was added to 120 μL of Rehydration Buffer (7M urea, 2 M thiourea, 2% (w/v) CHAPS [(3-[(3-cholamidopropyl)dimethylammonio]-1-propane-sulfonate), a nondenaturing zwitterionic detergent], 0.5% (w/v) ASB-14 (amidosulfobetaine-14, a zwitterionic detergent), 0.5% (v/v) ampholytes pH 3-10 (Bio-Rad), 0.5% (v/v) immobilized pH gradient (IPG) buffer pH 3-10 (Amersham-Pharmacia Biotech) and 65 mM dithiothreitol). The samples were quickly vortexed to mix sera with Rehydration Buffer. Four to six mg of protein were loaded for analysis. […] Quantitation utilized an algorithm developed for this purpose. […]

Molecule | increase in spot size and density of ENOX2 (ENOX2 [1]) | NADH concentration at which maximum ENOX2 activity was achieved (ENOX2 [2]) | cross-reactivity with immunoglobulin chain proteins [3]
NC(=O)C1=CN([C@@H]2O[C@H](COP(=O)(O)OP(=O)(O)OC[C@H]3O[C@@H](n4cnc5c(N)ncnc54)[C@H](O)[C@@H]3O)[C@@H](O)[C@H]2O)C=CC1 [NADH] | two-fold increase | about 500 μM | 
recombinant scFv: pan ENOX2 recombinant single chain variable region (scFv) antibody carrying an S tag, alkaline phosphatase linked (antibody, V domains shown, left off: things letters cannot carry; another chain or arm of the molecule; a dimerising Fc or GST; small tags and cut ends, pan ENOX2 recombinant single chain variable region (scFv) antibody carrying an S tag, alkaline phosphatase linked) VH: EVKLQESGTEVVKPGASVKLSCKASGYIFTSYDIDWVRQTPEQGLEWIGWIFPGEGSTEYNEKFKGRATLSVDKSSSTAYMELTRLTSEDSAVYFCARGDYYRRYFDLWGQGTTVTVSS VL: ENVLTQSPAIMSASPGERVTMTCSASSSIRYIYWYQQKPGSSPRLLIYDTSNVAPGVPFRFSGSGSGTSYSLTINRMEAEDAATYYCQEWSGYPYTFGGGTKLELK |  |  | weakly cross-reactive
